Measured values reported in patent US8846570B2, “Herbicidal compositions comprising 4-amino-3-chloro-5-fluoro-6-(4-chloro-2-fluoro-3-methoxyphenyl)pyridine-2-carboxylic acid or a derivative thereof and microtubule inhibiting herbicides” (Dow AgroSciences LLC, priority 2012, dated 2014).
Like-named read-outs stand apart in the source and are kept apart here.

Key:
Type in all cases: in vivo
[1] = system: Ipomoea hederacea Jacq. (IPOHE); assay: Postemergence foliar-applied, direct seeded rice, greenhouse: visual weed control; details: post-emergence, read-out: Visual Weed Control (%) Obs
Method: Seeds or nutlets of the desired test plant species were planted in a soil matrix prepared by mixing a loam or sandy loam soil (e.g., 28.6 percent silt, 18.8 percent clay, and 52.6 percent sand, with a pH of about 5.8 and an organic matter content of about 1.8 percent) and calcareous grit in an 80 to 20 ratio. The soil matrix was contained in plastic pots with a volume of 1 quart and a surface area of 83.6 cm^2. […] The plants were grown for 8-22 days in a greenhouse with an approximate 14 h photoperiod which was maintained at about 29° C. during the day and 26° C. during the night. Nutrients (Peters Excel® 15-5-15 5-Ca 2-Mg and iron chelate) were applied in the irrigation solution as needed and water was added on a regular basis. Supplemental lighting was provided with overhead metal halide 1000-Watt lamps as necessary. The plants were employed for testing when they reached the first through fourth true leaf stage.
(§1) Forms of compound A were applied on an acid equivalent basis.
(§2) For treatments comprised of formulated compounds, measured amounts of compounds were placed individually in 25 mL glass vials and diluted in a volume of 1.25% (v/v) Agri-Dex® crop oil concentrated to obtain 12× stock solutions. […] Application solutions were prepared by adding an appropriate amount of each stock solution (e.g., 1 mL) and diluted to the appropriate final concentrations with the addition of 10 mL of an aqueous mixture of 1.25% (v/v) crop oil concentrate so that the final spray solutions contained 1.25+/−0.05% (v/v) crop oil concentrate.
As required, additional water and/or 97:3 v/v acetone/DMSO was added to individual application solutions so that the final acetone and DMSO concentrations of the application solutions being compared were 8.1% and 0.25%, respectively.
(§3) All stock solutions and applications solutions were visually inspected for compound compatibility prior to application. Spray solutions were applied to the plant material with an overhead Mandel track sprayer equipped with a 8002E nozzles calibrated to deliver 187 L/ha over an application area of 0.503 m^2 at a spray height of 18 to 20 inches (46 to 50 cm) above average plant canopy height. Control plants were sprayed in the same manner with the solvent blank.
The treated plants and control plants were placed in a greenhouse as described above and watered by sub-irrigation to prevent wash-off of the test compounds. After approximately 3 weeks, the condition of the test plants as compared with that of the untreated plants was determined visually and scored on a scale of 0 to 100 percent where 0 corresponds to no injury or growth inhibition and 100 corresponds to complete kill.
(§4) Colby's equation was used to determine the herbicidal effects expected from the mixtures (Colby, S. R. 1967. Calculation of the synergistic and antagonistic response of herbicide combinations. Weeds 15:20-22.).
(§5) The following equation was used to calculate the expected activity of mixtures containing two active ingredients, A and B: Expected=A+B−(A×B/100)

[2] = system: Ipomoea hederacea (L.) Jacq. (IPOHE); assay: Pre-emergence soil-applied, greenhouse: visual weed control; details: Propyzamide 1120 g ai/ha alone; soil-applied pre-emergence; 33 DAA
Source text: (§6) Seeds or nutlets of the desired test plant species were planted in a soil matrix prepared by mixing a loam soil (e.g., 32 percent silt, 23 percent clay, and 45 percent sand, with a pH of about 6.5 and an organic matter content of about 1.9 percent) and calcareous grit in an 80 to 20 ratio. The soil matrix was contained in plastic pots with a volume of 1 quart and a surface area of 83.6 square centimeters (cm^2).
as §1
as §2, with “oil concentrate (COC)” for “oil concentrated”, “(v/v) COC” for “(v/v) crop oil concentrate”, “contained 1.25%” for “contained 1.25+/−0.05%”, “(v/v) COC.” for “(v/v) crop oil concentrate.”
(§7) For treatments comprised of formulated and technical compounds, weighed amounts of the technical materials were placed individually in 25 mL glass vials and dissolved in a volume of 97:3 (v/v) acetone/DMSO to obtain 12× stock solutions, and measured amounts of the formulated compounds were placed individually in 25 mL glass vials and diluted in a volume of 1.5% (v/v) COC or water to obtain 12× stock solutions. […] Application solutions were prepared by adding an appropriate amount of each stock solution (e.g., 1 mL) and diluted to the appropriate final concentrations with the addition of an appropriate amount of an aqueous mixture of 1.5% (v/v) COC so that the final spray solutions contained 1.25% (v/v) COC. As required, additional water and/or 97:3 (v/v) acetone/DMSO was added to individual application solutions so that the final acetone and DMSO concentrations of the application solutions being compared were 8.1% and 0.25%, respectively.
as §3, with “soil” for “plant material”, “18” for “18 to 20”, “(46” for “(46 to 50”, “pot” for “plant canopy”, “pots” for “plants”
The treated and control pots were placed in a greenhouse and top watered as needed. […] The pots were maintained in a greenhouse with an approximate 14 hr photoperiod which was maintained at about 29° C. during the day and 26° C. during the night. Nutrients (Peters® Excel 15-5-15 5-Ca 2-Mg) were applied in the irrigation solution as needed and water was added on a regular basis. Supplemental lighting was provided with overhead metal halide 1000-Watt lamps as necessary. After approximately 4 weeks, the condition of the test plants as compared with that of the untreated plants was determined visually and scored on a scale of 0 to 100 percent where 0 corresponds to no injury or growth inhibition and 100 corresponds to complete kill.
as §4, §5

[3] = system: Brachiaria platyphylla (Groseb.) Nash or Urochloa platyphylla (Nash) R.D. Webster (BRAPP); assay: as above
Source text: as §6
(§8) Treatments consisted of the benzyl ester of 4-amino-3-chloro-5-fluoro-6-(4-chloro-2-fluoro-3-methoxy-phenyl)pyridine-2-carboxylic acid (compound A) formulated as an SC (suspension concentrate) and various herbicidal components alone and in combination. Forms of compound A were applied on an acid equivalent basis.
(§9) Treatment requirements were calculated based upon the rates being tested, the concentration of active ingredient or acid equivalent in the formulation, and a 12 mL application volume at a rate of 187 L/ha.
as §2, with “oil concentrate (COC)” for “oil concentrated”, “(v/v) COC” for “(v/v) crop oil concentrate”, “contained 1.25%” for “contained 1.25+/−0.05%”, “(v/v) COC.” for “(v/v) crop oil concentrate.”
as §7
as §3, with “soil” for “plant material”, “18” for “18 to 20”, “(46” for “(46 to 50”, “pot” for “plant canopy”, “pots” for “plants”
(§10) The treated and control pots were placed in a greenhouse and top watered as needed. When required to ensure good germination and healthy plants, a fungicide treatment and/or other chemical or physical treatment was applied. The pots were maintained in a greenhouse with an approximate 14 hr photoperiod which was maintained at about 29° C. during the day and 26° C. during the night. Nutrients (Peters® Excel 15-5-15 5-Ca 2-Mg) were applied in the irrigation solution as needed and water was added on a regular basis. Supplemental lighting was provided with overhead metal halide 1000-Watt lamps as necessary. After approximately 4 weeks, the condition of the test plants as compared with that of the untreated plants was determined visually and scored on a scale of 0 to 100 percent where 0 corresponds to no injury or growth inhibition and 100 corresponds to complete kill.
(§11) Colby's equation was used to determine the herbicidal effects expected from the mixtures (Colby, S. R. 1967. Calculation of the synergistic and antagonistic response of herbicide combinations. Weeds 15:20-22.). […]

[4] = system: Echinochloa colonum (L.) Link (ECHCO); assay: as above
Source text: as §6, §8, §9
as §2, with “oil concentrate (COC)” for “oil concentrated”, “(v/v) COC” for “(v/v) crop oil concentrate”, “contained 1.25%” for “contained 1.25+/−0.05%”, “(v/v) COC.” for “(v/v) crop oil concentrate.”
as §7
as §3, with “soil” for “plant material”, “18” for “18 to 20”, “(46” for “(46 to 50”, “pot” for “plant canopy”, “pots” for “plants”
as §10, §11

[5] = system: Echinochloa crus-galli (L.) P. Beauv. (ECHCG); assay: as above
Source text: as §6, §8, §9
as §2, with “oil concentrate (COC)” for “oil concentrated”, “(v/v) COC” for “(v/v) crop oil concentrate”, “contained 1.25%” for “contained 1.25+/−0.05%”, “(v/v) COC.” for “(v/v) crop oil concentrate.”
as §7
as §3, with “soil” for “plant material”, “18” for “18 to 20”, “(46” for “(46 to 50”, “pot” for “plant canopy”, “pots” for “plants”
as §10, §11

[6] = system: Sesbania exaltata (Raf.) Cory/Rydb. Ex Hill (SEBEX); assay: as above
Source text: as §6, §8, §9
as §2, with “oil concentrate (COC)” for “oil concentrated”, “(v/v) COC” for “(v/v) crop oil concentrate”, “contained 1.25%” for “contained 1.25+/−0.05%”, “(v/v) COC.” for “(v/v) crop oil concentrate.”
as §7
as §3, with “soil” for “plant material”, “18” for “18 to 20”, “(46” for “(46 to 50”, “pot” for “plant canopy”, “pots” for “plants”
as §10, §11

[7] = system: Setaria faberi Herrm. (SETFA); assay: as above
Source text: as §6, §8, §9
as §2, with “oil concentrate (COC)” for “oil concentrated”, “(v/v) COC” for “(v/v) crop oil concentrate”, “contained 1.25%” for “contained 1.25+/−0.05%”, “(v/v) COC.” for “(v/v) crop oil concentrate.”
as §7
as §3, with “soil” for “plant material”, “18” for “18 to 20”, “(46” for “(46 to 50”, “pot” for “plant canopy”, “pots” for “plants”
as §10, §11

[8] = system: Xanthium strumarium L. (XANST); assay: as above; details: 27 DAA
Source text: as §6, §8, §9
as §2, with “oil concentrate (COC)” for “oil concentrated”, “(v/v) COC” for “(v/v) crop oil concentrate”, “contained 1.25%” for “contained 1.25+/−0.05%”, “(v/v) COC.” for “(v/v) crop oil concentrate.”
as §7
as §3, with “soil” for “plant material”, “18” for “18 to 20”, “(46” for “(46 to 50”, “pot” for “plant canopy”, “pots” for “plants”
as §10, §11

C#CC(C)(C)NC(=O)c1cc(Cl)cc(Cl)c1 [Propyzamide]
pest or weed control at 70 g/ha ([1]; 528 h, 22 DAA, 70 g ai/ha): 0%
pest or weed control at 140 g/ha ([1]; 528 h, 22 DAA, 140 g ai/ha): 0%
pest or weed control at 280 g/ha ([1]; 528 h, 22 DAA, 280 g ai/ha): 0%
Visual Weed Control (%) - 33 DAA IPOHE Obs [2]: 35%
Visual Weed Control (%) - 33 DAA BRAPP Obs ([3]; Propyzamide 280 g ai/ha alone): 20%
Visual Weed Control (%) - 33 DAA BRAPP Obs ([3]; Propyzamide 560 g ai/ha alone): 37%
Visual Weed Control (%) - 33 DAA ECHCO Obs ([4]; Propyzamide 280 g ai/ha alone): 0%
Visual Weed Control (%) - 33 DAA ECHCO Obs ([4]; Propyzamide 560 g ai/ha alone): 23%
Visual Weed Control (%) - 33 DAA ECHCO Obs ([4]; Propyzamide 1120 g ai/ha alone): 80%
Visual Weed Control (%) - 33 DAA ECHCG Obs ([5]; Propyzamide 560 g ai/ha alone): 35%
Visual Weed Control (%) - 33 DAA ECHCG Obs ([5]; Propyzamide 1120 g ai/ha alone): 53%
Visual Weed Control (%) - 33 DAA SEBEX Obs ([6]; Propyzamide 280 g ai/ha alone): 20%
Visual Weed Control (%) - 33 DAA SEBEX Obs ([6]; Propyzamide 560 g ai/ha alone): 13%
Visual Weed Control (%) - 33 DAA SEBEX Obs ([6]; Propyzamide 1120 g ai/ha alone): 37%
Visual Weed Control (%) - 33 DAA SETFA Obs ([7]; Propyzamide 280 g ai/ha alone): 0%
Visual Weed Control (%) - 33 DAA SETFA Obs ([7]; Propyzamide 560 g ai/ha alone): 68%
Visual Weed Control (%) - 33 DAA SETFA Obs ([7]; Propyzamide 1120 g ai/ha alone): 93%

COC(=O)c1c(C(F)F)nc(C(F)(F)F)c(C2=NCCS2)c1CC(C)C [Thiazopyr, methyl 2-(difluoromethyl)-5-(4,5-dihydro-2-thiazolyl)-4-(2-methylpropyl)-6-(trifluoromethyl)-3-pyridinecarboxylate]
pest or weed control at 280 g/ha ([1]; 480 h): 40%
Visual Weed Control (%) Obs ([8]; 280 g ai/ha): 15%
Visual Weed Control (%) Obs ([8]; 560 g ai/ha): 10%
